In patent US7514555B2, “Compounds for the treatment of metabolic disorders” (Wellstat Therapeutics Corporation, priority 2003, dated 2009):
Entries after “also recorded” stand apart in the source; their conditions may differ.

How the values were obtained:
db/db mice [1] = test: Antidiabetic effects in db/db mice, daily oral dosing for 4 weeks; format: in vivo; conditions: for effect on blood glucose (in words) / effect on free fatty acids (in words) / effect on serum triglycerides (in words): 4 weeks of daily oral dosing; for effect on blood glucose (in words): versus vehicle; for effect on free fatty acids (in words) / effect on serum triglycerides (in words): versus vehicle-treated db/db mice; for Glucose ± SEM: serum glucose; for Glucose ± SEM / Free Fatty Acids ± SEM / Triglycerides ± SEM: 100 mg/kg daily oral, 4 weeks; for Free Fatty Acids ± SEM / Triglycerides ± SEM: serum
Source text: (§1) Db/db mice have a defect in leptin signaling, leading to hyperphagia, obesity and diabetes. Moreover, unlike ob/ob mice on a C57BL/6J background, db/db mice on a C57BLKS background undergo failure of their insulin-producing pancreatic islet cells, resulting in progression from hyperinsulinemia (associated with peripheral insulin resistance) to hypoinsulinemic diabetes.
(§2) Male obese (db/db homozygote) C57BL/Ksola mice approximately 8 weeks of age, were obtained from Jackson Labs (Bar Harbor, Me.) and randomly assigned into groups of 5-7 animals such that the body weights (40-45 g) and serum glucose levels (≧300 mg/dl in fed state) were similar between groups; male lean (db/+heterozygote) mice served as cohort controls. A minimum of 7 days was allowed for adaptation after arrival. All animals were maintained under controlled temperature (23° C.), relative humidity (50±5%) and light (7:00-19:00), and allowed free access to standard chow (Formulab Diet 5008, Quality Lab Products, Elkridge, Md.) and water.
Treatment cohorts were given daily oral doses of vehicle, Compound BI (100 mg/kg), or Compound CR (100 mg/kg) for 4 weeks. At the end of the treatment period 100 μl of venous blood was withdrawn in a heparinized capillary tube from the retro-orbital sinus for serum chemistry analysis.

db/db mice [2] = test: Antidiabetic effects in db/db mice, daily oral dosing for 2 weeks; format: in vivo; conditions: for Glucose / Glucose (% of Control) / Free Fatty Acids ± SEM / Glucose ± SEM / Triglycerides ± SEM: 100 mg/kg daily oral; for Glucose / Glucose (% of Control): 2 weeks; for Glucose (% of Control): relative to vehicle control; for effect on blood glucose (in words) / effect on free fatty acids (in words) / effect on triglycerides (in words): 2 weeks of daily oral dosing; for Free Fatty Acids ± SEM / Glucose ± SEM / Triglycerides ± SEM: plasma serum, 2 weeks (Table IV)
Source text: as §1, §2
[…] At the end of the treatment period 100 μl of venous blood was withdrawn in a heparinized capillary tube from the retro-orbital sinus for serum chemistry analysis.
The same procedure as Example 2 was followed.

Compound	effect on blood glucose (in words) (db/db mice [1])	effect on free fatty acids (in words) (db/db mice [1])	effect on serum triglycerides (in words) (db/db mice [1])	Glucose ± SEM (db/db mice [1]) [mg/dL]	Free Fatty Acids ± SEM (db/db mice [1]) [µM]	Triglycerides ± SEM (db/db mice [1]) [mg/dL]	Glucose (db/db mice [2]) [mg/dL]	Glucose (% of Control) (db/db mice [2])	effect on blood glucose (in words) (db/db mice [2])	effect on free fatty acids (in words) (db/db mice [2])	effect on triglycerides (in words) (db/db mice [2])	Free Fatty Acids ± SEM (db/db mice [2])	Glucose ± SEM (db/db mice [2])	Triglycerides ± SEM (db/db mice [2])
Cc1cccc(C)c1COc1cccc([C@H](O)CCC(=O)O)c1 [Compound CR, 4-(3-(2,6-Dimethylbenzyloxy)-phenyl)-4(R)-hydroxybutanoic acid]	significant reduction	reduced; also recorded: did result in a decrease	reduced	235 ± 49	1634 ± 78	182 ± 29	263.2 ± 59.0	35 ± 8 % of Control	significant reduction	not CR caused a decrease	markedly reduce	1326.3 ± 124.2	263.2 ± 59.0	86.3 ± 9.4
Cc1cccc(C)c1COc1cccc(C(=O)CCC(=O)O)c1 [Compound BI, 4-(3-(2,6-Dimethylbenzyloxy)-phenyl)-4-oxobutanoic acid, reference compound]	significant reduction	reduced	reduced	189 ± 25	1387 ± 101	125 ± 11	317.4 ± 48.0	42 ± 6 % of Control	significant reduction	caused a decrease	markedly reduce	1070.3 ± 96.4	317.4 ± 48.0	136.3 ± 18.1
